In ChEMBL document CHEMBL3885881, “DrugMatrix”:

Organism: Rattus norvegicus
Assay: DrugMatrix - Regimen: Daily Repeat
Format: toxicity, organism-based, Sprague-Dawley
Design: regimen Daily Repeat, gender Male, age 6-8 weeks
Conditions: in vivo, po, route oral GAVAGE, vehicle .5 % CMC; for ABSOLUTE BASOPHIL / ABSOLUTE EOSINOPHIL / ABSOLUTE LYMPHOCYTE / ABSOLUTE MONOCYTE / ABSOLUTE SEGMENTED NEUTROPHIL / BASOPHIL / EOSINOPHIL / ERYTHROCYTE COUNT / HEMATOCRIT / HEMOGLOBIN / LEUKOCYTE COUNT / LYMPHOCYTE / MEAN CORPUSCULAR HEMOGLOBIN / MEAN CORPUSCULAR HEMOGLOBIN CONCENTRATION / MEAN CORPUSCULAR VOLUME / MONOCYTE / NEUTROPHIL / NUCLEATED RED BLOOD CELLS / PLATELET COUNT: tissue Blood; for ALANINE AMINOTRANSFERASE / ALBUMIN / ALKALINE PHOSPHATASE / ASPARTATE AMINOTRANSFERASE / BLOOD UREA NITROGEN / CARBON DIOXIDE / CHLORIDE / CHOLESTEROL / CREATINE PHOSPHOKINASE / CREATININE / GLUCOSE / LACTATE DEHYDROGENASE / LIPASE / PHOSPHORUS / POTASSIUM / SODIUM / TOTAL BILIRUBIN / TOTAL PROTEIN / URIC ACID: tissue Plasma
[1] = 5 mg/kg, 72 h, dose level Low, time 3 day
[2] = 5 mg/kg, 120 h, dose level Low, time 5 day
[3] = 35 mg/kg, 72 h, dose level High, time 3 day
[4] = 35 mg/kg, 120 h, dose level High, time 5 day

COc1cc(CNC(=O)CCCC/C=C/C(C)C)ccc1O [CAPSAICIN]
ABSOLUTE BASOPHIL [1]: 0 CELLS/uL | ABSOLUTE EOSINOPHIL [1]: 231.67 CELLS/uL | ABSOLUTE LYMPHOCYTE [1]: 12823.67 CELLS/uL | ABSOLUTE MONOCYTE [1]: 176.33 CELLS/uL | ABSOLUTE SEGMENTED NEUTROPHIL [1]: 735 CELLS/uL | BASOPHIL [1]: 0% | EOSINOPHIL [1]: 1.33% | ERYTHROCYTE COUNT [1]: 5.55 x10E6/uL | HEMATOCRIT [1]: 34.43% | HEMOGLOBIN [1]: 12.97 G/DL | LEUKOCYTE COUNT [1]: 13.97 x10E3/uL | LYMPHOCYTE [1]: 92% | MEAN CORPUSCULAR HEMOGLOBIN [1]: 23.37 pg | MEAN CORPUSCULAR HEMOGLOBIN CONCENTRATION [1]: 37.63 G/DL | MEAN CORPUSCULAR VOLUME [1]: 62.03 fL | MONOCYTE [1]: 1.33% | NEUTROPHIL [1]: 5.33% | NUCLEATED RED BLOOD CELLS [1]: 0 /100WBC | PLATELET COUNT [1]: 1334 x10E3/uL | ALANINE AMINOTRANSFERASE [1]: 40.33 u/L | ALBUMIN [1]: 4.27 G/DL | ALKALINE PHOSPHATASE [1]: 433 u/L | ASPARTATE AMINOTRANSFERASE [1]: 75.33 u/L | BLOOD UREA NITROGEN [1]: 15 mg/dL | CARBON DIOXIDE [1]: 25.33 mmol/L | CHLORIDE [1]: 104.67 MEQ/L | CHOLESTEROL [1]: 57 mg/dL | CREATINE PHOSPHOKINASE [1]: 554.67 u/L | CREATININE [1]: 0.17 mg/dL | GLUCOSE [1]: 177.67 mg/dL | LACTATE DEHYDROGENASE [1]: 121 u/L | LIPASE [1]: 8 u/L | PHOSPHORUS [1]: 12.47 mg/dL | POTASSIUM [1]: 6.02 MEQ/L | SODIUM [1]: 145.37 MEQ/L | TOTAL BILIRUBIN [1]: 0.23 mg/dL | TOTAL PROTEIN [1]: 5.9 G/DL | URIC ACID [1]: 1.5 mg/dL | ABSOLUTE BASOPHIL [2]: 0 CELLS/uL | ABSOLUTE EOSINOPHIL [2]: 118.67 CELLS/uL | ABSOLUTE LYMPHOCYTE [2]: 14371.67 CELLS/uL | ABSOLUTE MONOCYTE [2]: 374.33 CELLS/uL | ABSOLUTE SEGMENTED NEUTROPHIL [2]: 1135.33 CELLS/uL | BASOPHIL [2]: 0% | EOSINOPHIL [2]: 0.67% | ERYTHROCYTE COUNT [2]: 5.31 x10E6/uL | HEMATOCRIT [2]: 33.03% | HEMOGLOBIN [2]: 12.53 G/DL | LEUKOCYTE COUNT [2]: 16 x10E3/uL | LYMPHOCYTE [2]: 89.67% | MEAN CORPUSCULAR HEMOGLOBIN [2]: 23.6 pg | MEAN CORPUSCULAR HEMOGLOBIN CONCENTRATION [2]: 37.93 G/DL | MEAN CORPUSCULAR VOLUME [2]: 62.17 fL | MONOCYTE [2]: 2.33% | NEUTROPHIL [2]: 7.33% | NUCLEATED RED BLOOD CELLS [2]: 0 /100WBC | PLATELET COUNT [2]: 1256.67 x10E3/uL | ALANINE AMINOTRANSFERASE [2]: 50 u/L | ALBUMIN [2]: 4.1 G/DL | ALKALINE PHOSPHATASE [2]: 314 u/L | ASPARTATE AMINOTRANSFERASE [2]: 93.67 u/L | BLOOD UREA NITROGEN [2]: 18.33 mg/dL | CARBON DIOXIDE [2]: 24.33 mmol/L | CHLORIDE [2]: 107.67 MEQ/L | CHOLESTEROL [2]: 68 mg/dL | CREATINE PHOSPHOKINASE [2]: 629.33 u/L | CREATININE [2]: 0.21 mg/dL | GLUCOSE [2]: 153 mg/dL | LACTATE DEHYDROGENASE [2]: 471.33 u/L | LIPASE [2]: 8.33 u/L | PHOSPHORUS [2]: 12.63 mg/dL | POTASSIUM [2]: 5.84 MEQ/L | SODIUM [2]: 145.1 MEQ/L | TOTAL BILIRUBIN [2]: 0.2 mg/dL | TOTAL PROTEIN [2]: 6.2 G/DL | URIC ACID [2]: 1.73 mg/dL | ABSOLUTE BASOPHIL [3]: 0 CELLS/uL | ABSOLUTE EOSINOPHIL [3]: 0 CELLS/uL | ABSOLUTE LYMPHOCYTE [3]: 7477.33 CELLS/uL | ABSOLUTE MONOCYTE [3]: 60 CELLS/uL | ABSOLUTE SEGMENTED NEUTROPHIL [3]: 496 CELLS/uL | BASOPHIL [3]: 0% | EOSINOPHIL [3]: 0% | ERYTHROCYTE COUNT [3]: 5.28 x10E6/uL | HEMATOCRIT [3]: 33.53% | HEMOGLOBIN [3]: 12.7 G/DL | LEUKOCYTE COUNT [3]: 8.03 x10E3/uL | LYMPHOCYTE [3]: 92.67% | MEAN CORPUSCULAR HEMOGLOBIN [3]: 24.13 pg | MEAN CORPUSCULAR HEMOGLOBIN CONCENTRATION [3]: 37.9 G/DL | MEAN CORPUSCULAR VOLUME [3]: 63.63 fL | MONOCYTE [3]: 1% | NEUTROPHIL [3]: 6.33% | NUCLEATED RED BLOOD CELLS [3]: 0.33 /100WBC | PLATELET COUNT [3]: 1342.33 x10E3/uL | ALANINE AMINOTRANSFERASE [3]: 44 u/L | ALBUMIN [3]: 4.33 G/DL | ALKALINE PHOSPHATASE [3]: 316 u/L | ASPARTATE AMINOTRANSFERASE [3]: 71.33 u/L | BLOOD UREA NITROGEN [3]: 17.33 mg/dL | CARBON DIOXIDE [3]: 27.67 mmol/L | CHLORIDE [3]: 103.5 MEQ/L | CHOLESTEROL [3]: 75.67 mg/dL | CREATINE PHOSPHOKINASE [3]: 217 u/L | CREATININE [3]: 0.22 mg/dL | GLUCOSE [3]: 141.67 mg/dL | LACTATE DEHYDROGENASE [3]: 119.33 u/L | LIPASE [3]: 8.5 u/L | PHOSPHORUS [3]: 11.67 mg/dL | POTASSIUM [3]: 5.75 MEQ/L | SODIUM [3]: 147.2 MEQ/L | TOTAL BILIRUBIN [3]: 0.27 mg/dL | TOTAL PROTEIN [3]: 6.13 G/DL | URIC ACID [3]: 1.1 mg/dL | ABSOLUTE BASOPHIL [4]: 0 CELLS/uL | ABSOLUTE EOSINOPHIL [4]: 117.33 CELLS/uL | ABSOLUTE LYMPHOCYTE [4]: 12147.67 CELLS/uL | ABSOLUTE MONOCYTE [4]: 58.67 CELLS/uL | ABSOLUTE SEGMENTED NEUTROPHIL [4]: 1243 CELLS/uL | BASOPHIL [4]: 0% | EOSINOPHIL [4]: 1% | ERYTHROCYTE COUNT [4]: 5.71 x10E6/uL | HEMATOCRIT [4]: 34.97% | HEMOGLOBIN [4]: 13.33 G/DL | LEUKOCYTE COUNT [4]: 13.57 x10E3/uL | LYMPHOCYTE [4]: 88.67% | MEAN CORPUSCULAR HEMOGLOBIN [4]: 23.4 pg | MEAN CORPUSCULAR HEMOGLOBIN CONCENTRATION [4]: 38.13 G/DL | MEAN CORPUSCULAR VOLUME [4]: 61.27 fL | MONOCYTE [4]: 0.33% | NEUTROPHIL [4]: 10% | NUCLEATED RED BLOOD CELLS [4]: 0 /100WBC | PLATELET COUNT [4]: 1274 x10E3/uL | ALANINE AMINOTRANSFERASE [4]: 52.67 u/L | ALBUMIN [4]: 4.07 G/DL | ALKALINE PHOSPHATASE [4]: 391 u/L | ASPARTATE AMINOTRANSFERASE [4]: 83.67 u/L | BLOOD UREA NITROGEN [4]: 18 mg/dL | CARBON DIOXIDE [4]: 25.67 mmol/L | CHLORIDE [4]: 105.33 MEQ/L | CHOLESTEROL [4]: 62 mg/dL | CREATINE PHOSPHOKINASE [4]: 166.33 u/L | CREATININE [4]: 0.21 mg/dL | GLUCOSE [4]: 177 mg/dL | LACTATE DEHYDROGENASE [4]: 115.67 u/L | LIPASE [4]: 8.67 u/L | PHOSPHORUS [4]: 13.17 mg/dL | POTASSIUM [4]: 6.01 MEQ/L | SODIUM [4]: 146.17 MEQ/L | TOTAL BILIRUBIN [4]: 0.17 mg/dL | TOTAL PROTEIN [4]: 6.03 G/DL | URIC ACID [4]: 1.8 mg/dL
